Peptide text beside a SMILES is read from it.
How the values were obtained:
Type in all cases: cell-based
huGIPR = target: T1, huGIPR (Homo sapiens, UniProt P48546); assay: CRE-luc reporter assay, huGIPR; conditions: Table 3, HEK293T, 6 h, mean ± S.E. of at least three independent experiments, NR = no response
T1 construct: expressed in transfected cells; host or cells: HEK293T
T1 sequence (P48546 22-466): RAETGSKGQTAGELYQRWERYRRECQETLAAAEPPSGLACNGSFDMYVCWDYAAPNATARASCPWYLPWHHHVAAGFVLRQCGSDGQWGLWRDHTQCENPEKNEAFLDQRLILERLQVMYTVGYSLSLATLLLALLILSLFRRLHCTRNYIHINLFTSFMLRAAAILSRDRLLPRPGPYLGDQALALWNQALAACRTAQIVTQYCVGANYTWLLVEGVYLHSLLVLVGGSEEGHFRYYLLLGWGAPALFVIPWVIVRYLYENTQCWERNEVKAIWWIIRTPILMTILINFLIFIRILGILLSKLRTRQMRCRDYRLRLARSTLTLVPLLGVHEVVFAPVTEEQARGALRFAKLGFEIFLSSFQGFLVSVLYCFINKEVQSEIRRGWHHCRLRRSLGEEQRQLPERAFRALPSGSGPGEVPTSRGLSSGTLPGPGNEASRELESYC

huGLP1R = huGLP1R (Homo sapiens, UniProt P43220); assay: CRE-luc reporter assay, huGLP1R; conditions: Table 3, HEK293T, 6 h, mean ± S.E. of at least three independent experiments
huGLP2R = target: T2, huGLP2R (Homo sapiens, UniProt O95838); assay: CRE-luc reporter assay, huGLP2R; conditions: Table 3, HEK293T, 6 h, mean ± S.E. of at least three independent experiments, NR = no response
T2 construct: host or cells: HEK293T
T2 sequence (O95838 1-553): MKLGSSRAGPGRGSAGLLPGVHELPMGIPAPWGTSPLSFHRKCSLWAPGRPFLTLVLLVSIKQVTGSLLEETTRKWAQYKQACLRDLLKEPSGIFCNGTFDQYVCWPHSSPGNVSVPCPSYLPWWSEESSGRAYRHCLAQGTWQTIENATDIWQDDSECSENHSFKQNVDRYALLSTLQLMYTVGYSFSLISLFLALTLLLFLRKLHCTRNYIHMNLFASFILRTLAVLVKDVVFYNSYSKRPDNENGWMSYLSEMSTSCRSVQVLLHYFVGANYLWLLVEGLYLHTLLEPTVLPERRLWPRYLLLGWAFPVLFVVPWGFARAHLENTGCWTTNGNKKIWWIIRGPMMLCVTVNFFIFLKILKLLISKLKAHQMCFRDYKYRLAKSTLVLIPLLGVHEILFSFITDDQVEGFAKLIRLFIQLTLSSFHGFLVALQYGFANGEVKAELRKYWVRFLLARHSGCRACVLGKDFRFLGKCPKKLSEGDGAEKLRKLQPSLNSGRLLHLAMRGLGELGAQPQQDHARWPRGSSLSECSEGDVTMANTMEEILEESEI

huGCGR = target: T3, huGCGR (Homo sapiens, UniProt P47871); assay: CRE-luc reporter assay, huGCGR; conditions: Table 3, HEK293T, 6 h, mean ± S.E. of at least three independent experiments, NR = no response
T3 construct: host or cells: HEK293T
T3 sequence (P47871 26-477): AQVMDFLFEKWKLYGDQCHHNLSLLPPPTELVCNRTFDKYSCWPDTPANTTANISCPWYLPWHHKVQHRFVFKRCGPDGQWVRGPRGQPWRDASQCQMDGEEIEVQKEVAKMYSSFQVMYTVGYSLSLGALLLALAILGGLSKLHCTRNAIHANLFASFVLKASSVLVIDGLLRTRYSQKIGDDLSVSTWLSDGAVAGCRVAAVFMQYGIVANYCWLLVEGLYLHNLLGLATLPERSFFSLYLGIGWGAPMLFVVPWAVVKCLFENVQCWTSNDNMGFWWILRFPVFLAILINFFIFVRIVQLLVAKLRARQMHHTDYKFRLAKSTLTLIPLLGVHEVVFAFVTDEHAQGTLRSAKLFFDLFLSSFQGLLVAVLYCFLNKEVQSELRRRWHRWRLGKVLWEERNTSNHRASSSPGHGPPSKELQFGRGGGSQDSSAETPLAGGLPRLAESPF

huGLP1R, sequence (P43220 24-463): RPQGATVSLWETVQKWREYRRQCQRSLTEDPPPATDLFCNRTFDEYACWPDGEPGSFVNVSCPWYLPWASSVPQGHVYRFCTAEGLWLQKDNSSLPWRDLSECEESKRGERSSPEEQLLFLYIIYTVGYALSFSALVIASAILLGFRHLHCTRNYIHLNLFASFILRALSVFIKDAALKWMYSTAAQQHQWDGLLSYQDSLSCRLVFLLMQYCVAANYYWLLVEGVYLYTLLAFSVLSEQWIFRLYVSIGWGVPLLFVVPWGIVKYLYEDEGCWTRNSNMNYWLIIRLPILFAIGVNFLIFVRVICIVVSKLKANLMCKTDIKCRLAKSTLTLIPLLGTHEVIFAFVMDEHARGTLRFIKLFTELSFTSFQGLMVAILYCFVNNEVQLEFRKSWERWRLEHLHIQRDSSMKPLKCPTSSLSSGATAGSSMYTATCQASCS

EC50 (huGIPR) [nM] | EC50 (huGLP1R) [nM] | EC50 (huGLP2R) [nM] | EC50 (huGCGR) [nM] | SMILES
> 10000 | 48.9 ± 9.15 | 592 ± 127 | 42.7 ± 14.5 | CC[C@H](C)[C@H](NC(=O)[C@H](CC(C)C)NC(=O)[C@H](Cc1c[nH]c2ccccc12)NC(=O)[C@H](Cc1c[nH]cn1)NC(=O)[C@@H](NC(=O)[C@H](Cc1ccccc1)NC(=O)[C@H](CC(=O)O)NC(=O)[C@H](CCCCN)NC(=O)[C@H](C)NC(=O)[C@H](CCCCN)NC(=O)[C@H](CCSC)NC(=O)[C@H](CCCCN)NC(=O)[C@H](CC(=O)O)NC(=O)[C@H](CC(C)C)NC(=O)[C@H](Cc1ccc(O)cc1)NC(=O)[C@H](CCCNC(=N)N)NC(=O)[C@@H](NC(=O)[C@H](Cc1ccccc1)NC(=O)[C@H](CC(=O)O)NC(=O)[C@H](CO)NC(=O)[C@@H](NC(=O)[C@H](Cc1ccccc1)NC(=O)[C@@H](NC(=O)CNC(=O)[C@H](CCC(=O)O)NC(=O)[C@H](CO)NC(=O)[C@@H](N)Cc1c[nH]cn1)[C@@H](C)O)[C@@H](C)O)[C@@H](C)O)C(C)C)C(=O)N[C@@H](CC(N)=O)C(=O)N[C@H](C(=O)O)[C@@H](C)O [chGCRP] (H-HSEGTFTSDFTRYLDKMKAKDFVHWLINT-OH)
> 10000 | > 1000 | > 10000 | 182 ± 39.5 | CSCC[C@H](NC(=O)[C@H](CC(C)C)NC(=O)[C@H](Cc1c[nH]c2ccccc12)NC(=O)[C@H](CCC(N)=O)NC(=O)[C@@H](NC(=O)[C@H](Cc1ccccc1)NC(=O)[C@H](CC(=O)O)NC(=O)[C@H](CCCCN)NC(=O)[C@H](C)NC(=O)[C@H](CCCCN)NC(=O)[C@H](CCSC)NC(=O)[C@H](CCCCN)NC(=O)[C@H](CC(=O)O)NC(=O)[C@H](CC(C)C)NC(=O)[C@H](Cc1ccc(O)cc1)NC(=O)[C@H](CCCNC(=N)N)NC(=O)[C@@H](NC(=O)[C@H](CC(C)C)NC(=O)[C@H](CC(=O)O)NC(=O)[C@H](CO)NC(=O)[C@H](CO)NC(=O)[C@H](Cc1ccccc1)NC(=O)[C@@H](NC(=O)CNC(=O)[C@H](CCC(=O)O)NC(=O)[C@H](CO)NC(=O)[C@@H](N)Cc1c[nH]cn1)[C@@H](C)O)[C@@H](C)O)C(C)C)C(=O)N[C@@H](CC(N)=O)C(=O)O [xeGCRP] (H-HSEGTFSSDLTRYLDKMKAKDFVQWLMN-OH)
> 10000 | 156 ± 32.8 | > 10000 | 175 ± 41.8 | CC[C@H](C)[C@H](NC(=O)[C@H](C)NC(=O)[C@H](C)NC(=O)[C@H](CC(C)C)NC(=O)[C@H](Cc1c[nH]c2ccccc12)NC(=O)[C@H](CCC(=O)O)NC(=O)[C@@H](NC(=O)[C@H](Cc1ccccc1)NC(=O)[C@H](CC(N)=O)NC(=O)[C@H](CCCCN)NC(=O)[C@H](C)NC(=O)[C@H](CCCCN)NC(=O)[C@H](CCSC)NC(=O)[C@H](CCCCN)NC(=O)[C@H](CC(=O)O)NC(=O)[C@H](CC(C)C)NC(=O)[C@H](Cc1ccc(O)cc1)NC(=O)[C@H](CC(N)=O)NC(=O)[C@@H](NC(=O)[C@H](CC(C)C)NC(=O)[C@H](CC(=O)O)NC(=O)[C@H](CO)NC(=O)[C@@H](NC(=O)[C@H](Cc1ccccc1)NC(=O)[C@H](CCSC)NC(=O)CNC(=O)[C@H](CC(=O)O)NC(=O)[C@@H](NC(=O)[C@@H](N)Cc1c[nH]cn1)[C@@H](C)O)[C@@H](C)O)[C@@H](C)O)C(C)C)C(=O)N[C@@H](CCCCN)C(=O)N[C@@H](CCC(N)=O)C(=O)N[C@@H](CCC(N)=O)C(=O)N[C@@H](CCC(=O)O)C(=O)O [mdGCRP] (H-HTDGMFTSDLTNYLDKMKAKNFVEWLAAIKQQE-OH)

— article PMC3679108, “A Novel Glucagon-Related Peptide (GCRP) and Its Receptor GCRPR Account for Coevolution of Their Family Members in Vertebrates” (PLoS ONE, 2013)
